Results on 17 compounds are retold here after PubChem BioAssay AID328 (DTP/NCI, 2004).

“And” between values parts separate entries of the source, which are not always exact repeats. Equal entries are not always repeated. Toxic doses and inconclusive results are not listed. Starred links: 1 amine or outer side, 2 acyl side, 3 side chain; linkers in the order of their positions; H or OH if unused. Positions of bridges follow the written chain, without caps; N, C: chain ends. Non-standard residues stand in square brackets, D forms with d. Residues, ends and D or L forms follow the SMILES beside them. Chains are numbered I, II in the order given. Actinocin(1to9) = Cc1c2oc3c(C)ccc(C(=O)[*:2])c3nc-2c(C(=O)[*:1])c(N)c1=O; X2 = CC(=O)OC1CC(C)N([*:1])C1C(=O)[*:2]; X1 = CC1CC(=O)C(C(=O)[*:2])N1[*:1]; NMeV = CN[CH](C(=O)O)C(C)C; NMeA = CN[CH](C)C(=O)O; Sar = CNCC(=O)O

The assay has as its system BDF1 mice, P388 leukemia ip, median survival T/C. The experiment in a line: NCI In Vivo Anticancer Drug Screen. Data for tumor model P388 Leukemia (intraperitoneal) in B6D2F1 (BDF1) mice. Conditions: endpoint: median survival time, higher = longer survival. The procedure, abridged:
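Antitumour effect was judged in vivo: survival in drug-treated mice, normalised to that of vehicle-dosed controls, gives the reported T/C.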

Setting [1] is: dose: 6.25 mg/kg/injection, schedule: Q01DX009 (ip), vehicle: saline with Tween-80.
Setting [2] is: dose: 12.5 mg/kg/injection, schedule: Q01DX009 (ip), vehicle: saline with Tween-80.
The mark [3] stands for this setting: dose: 50.0 mg/kg/injection, schedule: Q01DX009 (ip), vehicle: saline with Tween-80.
Where [4] appears, read: dose: 100.0 mg/kg/injection, schedule: Q01DX009 (ip), vehicle: saline with Tween-80.
The mark [5] stands for this setting: dose: 200.0 mg/kg/injection, schedule: Q01DX009 (ip), vehicle: saline with Tween-80.
Setting [6] is: dose: 50.0 mg/kg/injection, schedule: Q04DX003 (ip), vehicle: saline with Tween-80.
The mark [7] stands for this setting: dose: 100.0 mg/kg/injection, schedule: Q04DX003 (ip), vehicle: saline with Tween-80.
Setting [8] is: dose: 200.0 mg/kg/injection, schedule: Q04DX003 (ip), vehicle: saline with Tween-80.
Where [9] appears, read: dose: 400.0 mg/kg/injection, schedule: Q04DX003 (ip), vehicle: saline with Tween-80.
[10] abbreviates: dose: 25.0 mg/kg/injection, schedule: Q01DX009 (ip), vehicle: Klucel (hydroxypropylcellulose) (HPC).
[11] abbreviates: dose: 25.0 mg/kg/injection, schedule: Q04DX003 (ip), vehicle: saline with Tween-80.
The mark [12] stands for this setting: dose: 25.0 mg/kg/injection, schedule: Q01DX009 (ip), vehicle: saline with Tween-80.
Where [13] appears, read: dose: 15.0 mg/kg/injection, schedule: Q01DX009 (ip), vehicle: saline with Tween-80.
The mark [14] stands for this setting: dose: 30.0 mg/kg/injection, schedule: Q01DX009 (ip), vehicle: saline with Tween-80.
The mark [15] stands for this setting: dose: 3.12 mg/kg/injection, schedule: Q01DX009 (ip), vehicle: Klucel (hydroxypropylcellulose) (HPC).

Take `O=C1N/C(=N\c2nc3ccccc3s2)c2ccccc21`: the T/C (dose: 3.13 mg/kg/injection, schedule: Q01DX009 (ip), vehicle: saline with Tween-80) was 90 % of control; the T/C under setting [1] is 92 % of control; the T/C under setting [2] is 92 % of control.
Regarding `COc1ccc(C(O)C2CCCN(C)S2(=O)=O)cc1` (configuration not stated), the T/C is, setting by setting: (dose: 100.0 mg/kg/injection, schedule: Q04DX002 (ip), vehicle: saline with Tween-80) 117 % of control; (dose: 200.0 mg/kg/injection, schedule: Q04DX002 (ip), vehicle: saline with Tween-80) 112 % of control; (dose: 400.0 mg/kg/injection, schedule: Q04DX002 (ip), vehicle: saline with Tween-80) 111 % of control.
Consider `CN(C)C1C(=O)C(C(N)=O)=C(O)C2(O)C(=O)C3=C(O)c4c(O)cccc4C(C)(O)C3CC12.O.O.O.[Al]` (configuration not stated), for which the T/C was 101 % of control (dose: 100.0 mg/kg/injection, schedule: Q01DX009 (ip), vehicle: Klucel (hydroxypropylcellulose) (HPC)); 92 % of control (dose: 200.0 mg/kg/injection, schedule: Q01DX009 (ip), vehicle: Klucel (hydroxypropylcellulose) (HPC)); 121 % of control (dose: 400.0 mg/kg/injection, schedule: Q01DX009 (ip), vehicle: Klucel (hydroxypropylcellulose) (HPC)).
Take `O=c1[nH]n(-c2ccccc2)c(=O)cc1Cl`: the T/C is 95 % of control under setting [3], 87 % of control under setting [4] and 90 % of control under setting [5].
On to `CC(=O)OC1CC2CCC1(C)C2(C)C` (configuration not stated), for which the T/C is, setting by setting: under setting [6], 109 % of control; under setting [7], 109 % of control; under setting [8], 118 % of control.
Regarding `CC(=O)OC1CC(C)N2C(=O)C(C(C)C)NC(=O)C(NC(=O)c3ccc(C)c4oc5c(C)c(=O)c(N)c(C(=O)NC6C(=O)NC(C(C)C)C(=O)N7C(C)CC(=O)C7C(=O)N(C)CC(=O)N(C)C(C)C(=O)OC6C)c-5nc34)C(C)OC(=O)C(C(C)C)N(C)C(=O)CN(C)C(=O)C12` (configuration not stated) (I: TV[X1][Sar][NMeA] / II: TV[X2][Sar][NMeV]; ester I:1-I:C, II:1-II:C; linker I:N-II:N via Actinocin(1to9); configuration not given here), the T/C (dose: 0.05 mg/kg/injection, schedule: Q01DX009 (ip), vehicle: saline + alcohol) was 100 % of control; the T/C (dose: 0.1 mg/kg/injection, schedule: Q01DX009 (ip), vehicle: saline + alcohol) was 117 % of control; the T/C (dose: 0.15 mg/kg/injection, schedule: Q04DX003 (ip), vehicle: saline + alcohol) was 98 % of control; the T/C (dose: 0.3 mg/kg/injection, schedule: Q04DX003 (ip), vehicle: saline + alcohol) was 113 % of control; the T/C (dose: 0.4 mg/kg/injection, schedule: Q01DX009 (ip), vehicle: saline + alcohol) is 156 % of control; the T/C (dose: 0.8 mg/kg/injection, schedule: Q01DX009 (ip), vehicle: saline + alcohol) was 189 % of control. Further, the T/C by setting is: (dose: 1.2 mg/kg/injection, schedule: Q04DX003 (ip), vehicle: saline + alcohol) 153 % of control; (dose: 2.4 mg/kg/injection, schedule: Q04DX003 (ip), vehicle: saline + alcohol) 202 % of control; (dose: 6.4 mg/kg/injection, schedule: Q01DX001 (ip), vehicle: saline + alcohol) 159 % of control.
As for `Nc1ccc(OC(=O)Oc2ccc(N)cc2)cc1`, the T/C is 100 % of control (dose: 264.0 mg/kg/injection, schedule: Q01DX009 (ip), vehicle: saline with Tween-80) and 104 % of control (dose: 400.0 mg/kg/injection, schedule: Q01DX009 (ip), vehicle: saline with Tween-80).
As for `CC(C)(C)NC(=O)NCc1cccnc1`, the T/C by setting is: under setting [7], 91 % of control; under setting [8], 95 % of control; under setting [9], 100 % of control.
`Cc1onc(-c2c(Cl)cccc2Cl)c1C(=O)Nc1ccccc1CC1c2ccccc2CCN1C` (configuration not stated): the T/C runs as follows: (dose: 12.5 mg/kg/injection, schedule: Q01DX009 (ip), vehicle: Klucel (hydroxypropylcellulose) (HPC)) 96 % of control; under setting [10], 99 % of control; (dose: 50.0 mg/kg/injection, schedule: Q01DX009 (ip), vehicle: Klucel (hydroxypropylcellulose) (HPC)) 89 % of control and 102 % of control.
Regarding `C=CCC1CCSC1=O` (configuration not stated), the T/C was 100 % of control and 115 % of control under setting [11]; 103 % of control and 106 % of control under setting [6]; 101 % of control and 103 % of control and 119 % of control under setting [7]; 108 % of control under setting [8].
Turning to `c1ccc(-c2cc(-c3ccccc3)[s+]s2)cc1`, the T/C reads like this: under setting [1], 111 % of control; under setting [2], 117 % of control and 124 % of control; under setting [12], 91 % of control and 110 % of control and 115 % of control; under setting [11], 98 % of control; under setting [3], 92 % of control and 113 % of control; under setting [6], 109 % of control and 115 % of control. The T/C under setting [4] was 98 % of control and 113 % of control; the T/C under setting [7] was 117 % of control and 118 % of control; the T/C under setting [5] was 99 % of control and 120 % of control; the T/C under setting [8] was 108 % of control; the T/C (dose: 300.0 mg/kg/injection, schedule: Q01DX009 (ip), vehicle: saline with Tween-80) was 94 % of control.
In the case of `O=[N+]([O-])c1ccc(N2CCN(c3ccc(Cl)cc3)CC2)c2c1no[n+]2[O-]`, the T/C reads like this: under setting [13], 100 % of control; under setting [14], 99 % of control; (dose: 60.0 mg/kg/injection, schedule: Q01DX009 (ip), vehicle: saline with Tween-80) 99 % of control.
Turning to `COC1=CC=C2C3Cc4ccc(OC)c(O)c4C2(C1)CN3C` (configuration not stated), the T/C under setting [15] was 87 % of control; the T/C (dose: 6.25 mg/kg/injection, schedule: Q01DX009 (ip), vehicle: Klucel (hydroxypropylcellulose) (HPC)) was 87 % of control; the T/C under setting [10] was 100 % of control.
Regarding `O=S1(=O)C=C(Cl)C2C3CC(C(Cl)C3Cl)C21` (configuration not stated), the T/C is 100 % of control (dose: 7.5 mg/kg/injection, schedule: Q01DX009 (ip), vehicle: saline with Tween-80); 113 % of control under setting [13]; 104 % of control under setting [14].
As for `Oc1ccc(O)cc1`, the T/C is 106 % of control (dose: 25.0 mg/kg/injection, schedule: Q04DX003 (ip), vehicle: Klucel (hydroxypropylcellulose) (HPC)); 112 % of control (dose: 50.0 mg/kg/injection, schedule: Q01DX009 (ip), vehicle: saline); 110 % of control (dose: 50.0 mg/kg/injection, schedule: Q04DX003 (ip), vehicle: Klucel (hydroxypropylcellulose) (HPC)); 100 % of control (dose: 66.0 mg/kg/injection, schedule: Q01DX009 (ip), vehicle: saline); 112 % of control (dose: 100.0 mg/kg/injection, schedule: Q04DX003 (ip), vehicle: Klucel (hydroxypropylcellulose) (HPC)).
As for `BrCCN(CCBr)c1ccc2c3c(cccc13)-c1ccccc1-2`, the T/C is 107 % of control (dose: 0.13 mg/kg/injection, schedule: Q01DX009 (ip), vehicle: saline); 92 % of control (dose: 0.25 mg/kg/injection, schedule: Q01DX009 (ip), vehicle: saline); 111 % of control (dose: 0.5 mg/kg/injection, schedule: Q01DX009 (ip), vehicle: saline); 107 % of control (dose: 0.68 mg/kg/injection, schedule: Q01DX009 (ip), vehicle: Klucel (hydroxypropylcellulose) (HPC)); 111 % of control (dose: 1.0 mg/kg/injection, schedule: Q01DX009 (ip), vehicle: Klucel (hydroxypropylcellulose) (HPC)); 111 % of control (dose: 1.0 mg/kg/injection, schedule: Q01DX009 (ip), vehicle: saline). The T/C is, setting by setting: under setting [15], 170 % of control; (dose: 21.0 mg/kg/injection, schedule: Q01DX009 (ip), vehicle: Klucel (hydroxypropylcellulose) (HPC)) 173 % of control; (dose: 30.0 mg/kg/injection, schedule: Q01DX009 (ip), vehicle: Klucel (hydroxypropylcellulose) (HPC)) 115 % of control; (dose: 45.0 mg/kg/injection, schedule: Q01DX009 (ip), vehicle: Klucel (hydroxypropylcellulose) (HPC)) 220 % of control; (dose: 70.0 mg/kg/injection, schedule: Q01DX009 (ip), vehicle: Klucel (hydroxypropylcellulose) (HPC)) 195 % of control; (dose: 176.0 mg/kg/injection, schedule: Q04DX003 (ip), vehicle: saline with Tween-80) 104 % of control. The T/C under setting [9] was 86 % of control.
Take `NNC(=O)c1cccc(N)c1`: the T/C reads like this: under setting [12], 100 % of control; under setting [3], 90 % of control; under setting [4], 100 % of control.
